Test results from patent US10059674B2, “Design, synthesis, and biological evaluation of 1-methyl-1, 4-dihyrdoindeno[1,2-C]pyrazole analogues as potential anticaner agents targeting tubulin colchicine binding site” (ACT PHARMA CO., LTD., priority 2016, dated 2018).
Read-outs that look alike come from different tables or passages of the source.

Key:
[1] = in vitro; details: human, microsomes, pH 7.47
[2] = in vitro; details: mouse, liver microsomes, pH 7.47
[3] = system: P-gp; assay: MDCK cell permeability test; details: dog, MDCK
[4] = system: MDCK cells; assay: MDCK cell permeability test
[5] = MDCK cell permeability test; details: dog, MDCK, 90 min; for Papp A→B at 90 min: Apparent permeability coefficient A→B; for Papp B→A at 90 min: Apparent permeability coefficient B→A
[6] = in vitro; details: monkey, microsomes, pH 7.47
[7] = Liver microsomal metabolism stability test; details: mouse
[8] = system: human hepatocellular carcinoma (HepG2) cells; assay: Anti-proliferation test (MTT colorimetry); type: cell-based; details: HepG2, 72 h
Protocol: (§1) The compound of formula 1 (prepared in embodiment 1), and the compound of formula 2 (prepared in embodiment 2) are given at different concentrations to human hepatocellular carcinoma (HepG2) cells, human prostate carcinoma (PC3) cells, human cervical carcinoma (HeLa) cells, human breast adenocarcinoma (MCF-7) cells, and human leukemia (K562) cells; all the groups are incubated 72 h in an incubator containing 5% of CO2 at 37° C., and then inhabitation ratios of the compounds to the tumor cells are measured by using methyl thiazolyl tetrazolium (MTT) colorimetry, and results are shown in table 1.

[9] = system: human leukemia (K562) cells; assay: Anti-proliferation test (MTT colorimetry); type: cell-based; details: K562, 72 h
Protocol: as §1

[10] = system: human prostate carcinoma (PC3) cells; assay: Anti-proliferation test (MTT colorimetry); type: cell-based; details: PC-3, PC3, 72 h
Protocol: as §1

[11] = system: human breast adenocarcinoma (MCF-7) cells; assay: Anti-proliferation test (MTT colorimetry); type: cell-based; details: MCF7, MCF-7, 72 h
Protocol: as §1

[12] = system: human cervical carcinoma (HeLa) cells; assay: Anti-proliferation test (MTT colorimetry); type: cell-based; details: 72 h
Protocol: as §1

[13] = in vitro; details: rat, microsomes, pH 7.47
[14] = system: tubulin; assay: Tubulin polymerization experiment (Cytoskeleton Tubulin Polymerization Assay Kit); type: biochemical
Protocol: The tubulin polymerization experiment is carried out according to the specifications of Tubulin Polymerization Assay Kit of Cytoskeleton Corporation.

[15] = in vitro; details: dog, microsomes, pH 7.47
[16] = system: MDCK cells
[17] = Liver microsomal metabolism stability test; details: rat, microsomes, pH 7.47
[18] = 1st line of the compound (condition not given)
[19] = 2nd line of the compound (condition not given)
[20] = Recovery rate A→B, 2nd line of the compound (condition not given)
[21] = Recovery rate A→B, 1st line of the compound (condition not given; method: without / with 10 μM cyclosporine A)
[22] = Recovery rate B→A, 1st line of the compound (condition not given)
[23] = Recovery rate B→A, 2nd line of the compound (condition not given)

CCOc1cccc(Nc2nn(C)c3c2Cc2cc(OCC)c(OCC(=O)NO)cc2-3)c1 [LL-02]
half-life at 1 µM [1]: 12.9 min
microsomal CLint at 1 µM [1]: 108 µL/min/mg
half-life at 1 µM [2]: 17.8 min
microsomal CLint at 1 µM [2]: 78 µL/min/mg
efflux ratio at 90 min [3]: 4.4
PGP substrate judgment ([4]; MDCK cells): is the PGP substrate and Yes
Permeability Judgment ([4]; MDCK cells): moderate permeability
Efllux ratio ([4]; Papp(B→A)/Papp(A→B), 2nd line of the compound (condition not given)): 0.6
Papp A→B at 90 min [5, 18]: 7.4 ×10⁻⁶ cm/s
Papp A→B at 90 min [5, 19]: 12.4 ×10⁻⁶ cm/s
Papp B→A at 90 min [5, 18]: 32.6 ×10⁻⁶ cm/s
Papp B→A at 90 min [5, 19]: 6.9 ×10⁻⁶ cm/s
recovery at 90 min [5, 20]: 59.2%
recovery at 90 min [5, 21]: 89.4%
recovery at 90 min [5, 22]: 91.3%
recovery at 90 min [5, 23]: 79.4%
half-life at 1 µM [6]: 1.3 min
microsomal CLint at 1 µM [6]: 1070 µL/min/mg
metabolism in the liver microsomes (in words) [7]: faster
IC50 [8]: 16.4 nM
IC50 [9]: 8.33 nM
IC50 [10]: 23.5 nM
IC50 [11]: 3.36 nM
IC50 [12]: 13.2 nM
half-life at 1 µM [13]: 24 min
microsomal CLint at 1 µM [13]: 57.7 µL/min/mg
inhibition of tubulin polymerization (in words) ([14]; FIGS. 1 and 2): able to inhibit tubulin polymerization
IC50 ([14]; read-out: tubulin polymerization inhibiting IC50): 5330 nM
half-life at 1 µM [15]: 7.5 min
microsomal CLint at 1 µM [15]: 185 µL/min/mg

CC(C)CN(C[C@@H](O)[C@H](Cc1ccccc1)NC(=O)O[C@H]1CCOC1)S(=O)(=O)c1ccc(N)cc1 [Amprenavir, amprenavir, reference compound]
recovery at 90 min [5, 20]: 95.4%
recovery at 90 min [5, 21]: 106%
recovery at 90 min [5, 22]: 102%
recovery at 90 min [5, 23]: 100%
PGP substrate judgment [16]: Yes

COc1ccc2[nH]c([S+]([O-])Cc3ncc(C)c(OC)c3C)nc2c1 (stereo not shown) [omeprazole, reference compound]
microsomal CLint at 1 µM [13]: 88.3 µL/min/mg
half-life at 1 µM [17]: 15.7 min
